From US9549964B2, “Diagnosis, prognosis, and treatment of kidney disease” (Beth Israel Deaconess Medical Center, Inc., priority 2011, dated 2017)
Residues, ends and D or L forms follow the SMILES beside them.

Columns and labels:
human serum albumin = test: Prevention of albumin carbamylation by cyanate in the presence of competing nucleophiles (% C-Alb by LC-MS); conditions: 10 mM scavenger, 0.25 mM cyanate, 37° C., 14 hours; for % CarbAlb Average +/− SD / % Decrease compared to no inhibitor: human serum albumin 4 mg/ml
Method: The pH of each was adjusted to pH 7.4 using HCl. HSA (4 mg/mL) was added to each amino acid solution, and then mixed 1:1 with 0.5 mM potassium cyanate in 100 mM potassium phosphate pH 7.4 (0.25 mM cyanate final concentration). […] Desalted albumin was then denatured and digested for analysis as described above.
To this, we added 0.25 mM cyanate, incubated at 37° C. for 14 hours, and analyzed for % C-Alb thereafter (Table 11).

[1] = Cyanate titration of an equimolar amino acid mixture (susceptibility of amino acids to carbamylation); conditions: increasing cyanate, physiological buffer pH 7.4, overnight 37° C.
Method: Carbamylation titration experiments were performed using an amino acid standard mix from Sigma Aldrich (Cat. No. AAS18) supplemented with tryptophan, cysteine, and glutamine; all amino acids were equimolar (2.5 mM stock). The 0.1 N HCl in the standard solution was neutralized with ammonium hydroxide and removed by lyophilization, and the dried amino acids were diluted to final concentration of 50 μM (each) in 100 mM potassium phosphate pH 7.4. […] Carbamylation was halted with addition of 1 M HCl, and excess cyanate and HCl were removed by vacuum lyophilization at room temperature. Isotopic standards were then mixed with the reactions, the tube were re-lyophilized, and amino acid mixtures were then S-alkylated with iodoacetamide, butylated with butanolic HCl, and analyzed using methods similar to those described for serum amino acids.
To differentiate the isocyanate-scavenging ability of individual amino acids, we added increasing concentrations of cyanate to an equimolar mixture of all twenty amino acids in a physiological buffer. As expected, increasing concentration of cyanate produced linear increases of all carbamylated amino acids and depletion of their unmodified forms (FIGS. 9A and 9B). From the titration curves, we calculated the cyanate concentration at which 10% unmodified amino acid forms were depleted.

SMILES: C[C@H](N)C(=O)O [Alanine]
- % CarbAlb Average +/− SD (human serum albumin): 32 ± 1.7%

SMILES: N=C(N)NCCC[C@H](N)C(=O)O [Arginine]
- Susceptibility to carbamylation / cyanate binding (in words) [1]: prone to carbamylation at low cyanate concentrations
- % CarbAlb Average +/− SD (human serum albumin): 27 ± 1.6%

SMILES: N[C@@H](CS)C(=O)O [Cysteine]
- Susceptibility to carbamylation / cyanate binding (in words) [1]: very high cyanate binding avidity by the free thiol group
- Prevention of C-Alb formation / cyanate scavenging (in words) (human serum albumin): prevented C-Alb formation
- % CarbAlb Average +/− SD (human serum albumin): 23 ± 1.9%

SMILES: N[C@@H](CCC(=O)O)C(=O)O [Glutamate]
- % CarbAlb Average +/− SD (human serum albumin): 38 ± 1.2%
- % Decrease compared to no inhibitor (human serum albumin): 3%

SMILES: NC(=O)CC[C@H](N)C(=O)O [Glutamine]
- % CarbAlb Average +/− SD (human serum albumin): 32 ± 2.9%

SMILES: N[C@@H](CCC(=O)N[C@@H](CS)C(=O)NCC(=O)O)C(=O)O [Glutathione]
- % CarbAlb Average +/− SD (human serum albumin): 29 ± 1.4%

SMILES: NCC(=O)O [Glycine]
- % CarbAlb Average +/− SD (human serum albumin): 31 ± 1.8%

SMILES: NCC(=O)NCC(=O)O [Glycylglycine] (H-Gly-Gly-OH)
- Susceptibility to carbamylation / cyanate binding (in words) [1]: more strongly carbamylated than glycine or other amino acids

SMILES: N[C@@H](Cc1c[nH]cn1)C(=O)O [Histidine]
- Susceptibility to carbamylation / cyanate binding (in words) [1]: prone to carbamylation at low cyanate concentrations
- % CarbAlb Average +/− SD (human serum albumin): 26 ± 1.0%

SMILES: CC(C)C[C@H](N)C(=O)O [Leucine]
- % CarbAlb Average +/− SD (human serum albumin): 37 ± 2.2%

SMILES: NCCCC[C@H](N)C(=O)O [Lysine]
- Susceptibility to carbamylation / cyanate binding (in words) [1]: did not avidly bind cyanate
- % CarbAlb Average +/− SD (human serum albumin): 31 ± 0.9%
- % Decrease compared to no inhibitor (human serum albumin): 21%

SMILES: O=C(O)[C@@H]1CCCN1 [Proline]
- % CarbAlb Average +/− SD (human serum albumin): 34 ± 1.6%

SMILES: NCCS(=O)(=O)O [Taurine]
- Prevention of C-Alb formation / cyanate scavenging (in words) (human serum albumin): effectively scavenged cyanate
- % CarbAlb Average +/− SD (human serum albumin): 22 ± 1.7%

SMILES: N[C@@H](Cc1c[nH]c2ccccc12)C(=O)O [Tryptophan]
- % CarbAlb Average +/− SD (human serum albumin): 32 ± 2.7%

SMILES: CC(C)[C@H](N)C(=O)O [Valine]
- % CarbAlb Average +/− SD (human serum albumin): 33 ± 1.1%
- % Decrease compared to no inhibitor (human serum albumin): 16%
